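Dose response: 5 concentrations. Exposure: 48 h. Format: 96-well plates. Endpoint: linear interpolation; highest concentration if not reached. The concentration for 50% growth inhibition is given as GI50. TGI denotes the concentration required for complete inhibition of growth.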
What was measured:
Assay in all cases: NCI anticancer screen, dose series, 48 h
K-562 leukemia = test system: K-562 leukemia
ACHN renal = test system: ACHN renal
SK-MEL-28 melanoma = test system: SK-MEL-28 melanoma
HCT-15 colon = test system: HCT-15 colon
SR leukemia = test system: SR leukemia
HL-60(TB) leukemia = test system: HL-60(TB) leukemia
OVCAR-3 ovarian = test system: OVCAR-3 ovarian
U251 CNS = test system: U251 CNS
SNB-19 CNS = test system: SNB-19 CNS
MDA-MB-435 = test system: MDA-MB-435

Row | Structure (SMILES) | TGI (K-562 leukemia) [µM] | TGI (ACHN renal) [µM] | TGI (SK-MEL-28 melanoma) [µM] | TGI (HCT-15 colon) [µM] | TGI (SR leukemia) [µM] | TGI (HL-60(TB) leukemia) [µM] | TGI (OVCAR-3 ovarian) [µM] | TGI (U251 CNS) [µM] | TGI (SNB-19 CNS) [µM] | TGI (MDA-MB-435) [µM] | GI50 (K-562 leukemia) [µM] | GI50 (ACHN renal) [µM] | GI50 (SK-MEL-28 melanoma) [µM] | GI50 (HCT-15 colon) [µM] | GI50 (SR leukemia) [µM] | GI50 (HL-60(TB) leukemia) [µM] | GI50 (OVCAR-3 ovarian) [µM] | GI50 (U251 CNS) [µM] | GI50 (SNB-19 CNS) [µM] | GI50 (MDA-MB-435) [µM]
1 | O=C(O)c1ccc2c(c1C(=O)O)C(=O)OC2(c1ccc(O)cc1)c1ccc(O)cc1 | > 100 | > 100 | > 100 | > 100 | > 100 | > 100 | > 100 | > 100 | > 100 | > 100 |  |  |  |  |  |  |  |  |  | 
2 | O=C(CCCSc1nc(-c2ccccc2)cc(-c2ccccc2)n1)NO | 18.9 | 1.5 | 7.2 | 11.8 | 20.5 | 6.39 | 6.16 | 3.2 | 13.8 | 10.1 | 0.983 | 0.358 | 1.95 | 0.408 | 0.38 | 2.48 | 1.6 | 1.24 | 2.67 | 2.05
3 | O=C(/C(=C/c1ccc([N+](=O)[O-])cc1)SCc1ccccc1)c1ccc(Cl)cc1 | > 100 | 4.16 | 15.3 | 5.41 | 6.63 | 13.6 | 4.29 | 4.09 | 15.6 | 11.4 | 2.65 | 1.97 | 4.09 | 2.14 | 1.76 | 3.21 | 1.91 | 1.88 | 3.59 | 3.22
4 | CCC(=C/[C@H](C)C/C=C/C(C)=C/[C@@H](C)C(=O)[C@@H](C)[C@H](O)[C@@H](C)CC)/C=C/[C@H]1OC(=O)C=C[C@@H]1C |  | 0.566 | 1.26 | 1.28 |  | 1.77 | 3.96 | 1.36 | 2.12 | < 0.0184 | < 0.01 | < 0.01 | < 0.01 | < 0.01 | < 0.01 | < 0.01 | < 0.01 | < 0.01 | < 0.01 | < 0.01
5 | CC1SC(c2ccc(F)cc2)N(NC(=O)C(O)c2ccccc2)C1=O (stereo not given) | > 100 | > 100 | > 100 | > 100 | > 100 | > 100 | > 100 | > 100 | > 100 | > 100 | > 100 | > 100 | > 100 | > 100 | > 100 | > 100 | > 100 | > 100 | > 100 | > 100
6 | COc1cc(-c2ccc3cc(OC)c(OC)c(OC)c3c2)cc(OC)c1OC | > 100 | > 100 | > 100 | > 100 | > 100 | > 100 | > 100 | > 100 | > 100 | > 100 | 5.07 | 40.2 | > 100 | 6.03 | 5.19 | > 100 | > 100 | 15.7 | 75.1 | 2.8
7 | Nc1n[nH]c2cccc(C#Cc3cccc(C(=O)Nc4ccc(CN5CCOCC5)c(C(F)(F)F)c4)c3)c12 | > 100 | 9.96 | 7.08 | 9.32 | > 100 | 5 | 12.6 | 15.2 | 35.5 | 10.5 | 0.0233 | 2.63 | 1.88 | 2.56 | 1.97 | 1.17 | 3.48 | 2.75 | 3.36 | 2.22
8 | O=C(O)c1nc2nc(Cl)c(Cl)nc2[nH]1 | > 100 | > 100 | > 100 | > 100 | > 100 | > 100 | > 100 | > 100 | > 100 | > 100 |  |  |  |  |  |  |  |  |  | 
9 | O=C(/C=C/c1ccc(O)cc1)c1ccc(O)cc1 | > 82.3 | > 74.3 | 61.3 | 57.5 | 51.3 | > 75.1 | 52.1 | 46.6 | > 78.2 | > 100 |  |  |  |  |  |  |  |  |  | 
10 | CCOC(=O)C1=C(C)N(c2ccc(F)cc2F)[C@]2(C#N)C(O)=C(Cl)C(Cl)=C(O)[C@]12C#N | > 100 | > 100 | > 100 | > 100 | 95.9 | > 100 | > 100 | > 100 | > 100 | > 100 | 88 | > 100 | > 100 | > 100 | 34.5 | > 100 | > 100 | > 100 | > 100 | > 100
11 | Nc1ccccc1SC(CC(=O)c1ccccc1)c1cccc([N+](=O)[O-])c1 (stereo not given) | 13.6 | 27.9 | 30.3 | 28.4 | 6.46 | 40.1 | 25.8 | 20.7 | 27.4 | 30.4 | 3.72 | 14.5 | 16.6 | 11.5 | 2.55 | 17.3 | 12.8 | 7.51 | 14.3 | 16.3
12 | C=C1C(=O)O[C@H]2[C@H]1CC/C(COC(=O)NCc1ccc(Cn3c(=O)sn(-c4ccc(OC)cc4)c3=O)cc1)=C\CC[C@@]1(C)O[C@@H]21 |  | 3.27 | 4.1 | 3.36 | 5.2 | 5.48 | 3.04 | 13.9 | 24.6 | 3.84 |  | 1.73 | 1.97 | 1.68 | 0.535 | 2.12 | 1.61 | 4.11 | 11.7 | 1.83
13 | CCN(Cc1ccc(F)cc1)c1cc(Cl)c(CO)c(Cl)c1 | 51.6 | 29.2 | 31.5 | 36.6 | 39.6 | 32.6 | 24.3 | 22.6 | 26 | 37 | 15.9 | 14.9 | 17.3 | 15.7 | 15.4 | 13 | 11.7 | 10.5 | 12.5 | 17.9
14 | Cc1csc(-c2nnc(Nc3ccc(Oc4ncccc4-c4ccnc(N)n4)cc3)c3ccccc23)c1 | > 100 | > 100 | > 100 | > 100 | > 100 | > 100 | > 100 | > 100 | > 100 | > 100 | 3.15 | 2.11 | 2.1 | 1.78 | < 0.01 | 2.16 |  | > 100 | > 100 | 2.45
15 | O=C1CCC2(c3ccc(Cl)cc3)Nc3ccncc3N12 (stereo not given) | > 10 | > 10 |  | > 10 | > 10 | > 10 | > 10 | > 10 | > 10 | > 10 |  |  |  |  |  |  |  |  |  | 
16 | COc1ccc2nc(NC(=O)CSc3nnc4n3S(=O)(=O)c3ccccc3N4c3ccccc3)sc2c1 | > 100 | > 100 | > 100 | > 100 | > 100 | > 100 | > 100 | > 100 | > 100 | > 100 | > 100 | > 100 | > 100 | > 100 | 47.4 | 91.5 | > 100 | 52.4 | > 100 | > 100
17 | CCN(C(=O)N1CCN(c2cc3c(cc2F)c(=O)c(C(=O)O)cn3C2CC2)CC1)c1nc(-c2ccc(Cl)cc2)cs1 | > 100 | 10.1 | > 100 | > 100 | 0.897 | 1.77 | > 100 | 29.7 | 49.5 | 7.03 | 1.13 | 1.24 | 1.91 | 0.967 | 0.272 | 0.669 | 1.22 | 1.15 | 1.09 | 1.21
18 | CCN1C(=O)N(c2ccccc2)C2NC(=S)N(/N=C/C=C/c3ccccc3OC)C21 (stereo not given) | > 100 | > 60.8 | > 100 | > 100 | > 48.5 | 0.181 | 0.221 | > 43.8 | > 52.9 | 0.155 | 0.0662 | 0.134 | 4.73 | 0.102 | 0.086 | 0.0756 | 0.0778 | 0.106 | 0.133 | 0.0356
19 | COC[C@H]1Cn2cc(-c3nc(Nc4ccnn4C)ncc3C)nc2C(=O)N1Cc1ccc(F)c(F)c1 | > 100 | > 100 |  | > 100 | > 100 | 10.6 | > 100 | > 100 | > 100 | > 100 | 5.85 | 12.6 |  | 28.3 | > 100 | 0.471 | 60.6 |  | > 100 | 0.186
20 | O=[N+]([O-])c1ccc(Cl)cc1N/N=C/c1ccnc2ccccc12 | > 100 | > 100 | > 100 | > 100 | > 100 | > 100 | > 100 | > 100 | > 100 | > 100 |  |  |  |  |  |  |  |  |  | 
21 | COc1ccc(CCN=C2NC(=O)/C(=C/c3ccc4ncccc4c3)S2)cc1 | > 25 | > 25 | > 25 | > 25 | > 25 |  | > 25 | > 25 | > 25 | > 25 | > 25 | > 25 | > 25 | > 25 | 12.6 |  | > 25 | > 25 | > 25 | > 25
22 | Nc1n[nH]c2cc(F)c([C@@H]3Nc4ccc5[nH]ncc5c4[C@H]4C5CCC(C5)[C@@H]34)cc12 (stereo not given in full) | > 50 | 26.1 | 21.9 | 9.04 | > 50 | 1.67 | 6.35 | 9.3 | > 35 | 0.306 | 0.103 | 0.231 | 1.37 | 0.159 | 0.125 | 0.149 | 0.167 | 0.189 | 1.03 | 0.0854
23 | Nc1ccc(C2=NNC(=O)Cc3cc4c(cc32)OCCO4)cc1Cl |  | > 50 | > 50 | > 50 | > 50 | 12.3 | 6.47 | > 50 | > 50 | 4.18 |  | 18.8 | 9.1 | 2.49 | 1.37 | 1.72 | 1.51 | 3.68 | 8.19 | 0.886
24 | CN(C)c1cc(NN=C(c2ccc(O)cc2)c2ccc(O)cc2)c([N+](=O)[O-])cc1[N+](=O)[O-] | > 100 | 13.3 | 10.5 | 17.7 | 22.8 | 55.8 | 9.81 | 18.3 | 22.2 | 14.3 | 3.61 | 2.36 | 2.85 | 4.02 | 3.15 | 4.98 | 2.53 | 5.61 | 9.4 | 3.02
25 | Nc1c(C(=O)Nc2cccc(C(F)(F)F)c2)sc2nc3c(cc12)CCCCC3 | 29.7 | 3.73 | 23.6 | > 100 | 21.7 | > 100 | 11.5 | 7.98 | 19.8 | 63.1 | 5.42 | 1.56 | 3.73 | 10.7 | 4.03 | 15.6 | 2.84 | 2.2 | 4.24 | 2.53
26 | O=C1CN(c2cccc(Cl)c2)C(=O)CN1CCN1CC(=O)N(c2cccc(Cl)c2)CC1=O |  | > 100 | > 100 | > 100 | > 100 | > 100 | > 100 | > 100 | > 100 | > 100 |  |  |  |  |  |  |  |  |  | 
27 | O=C(Oc1ccc(Cl)cc1)c1ccccc1Nc1ccnc(C(F)(F)F)c1 | 87.8 | 33.1 |  | 5.13 | > 100 | > 100 | 26.4 |  |  | 4.87 | 3.65 | 10.8 |  | 2.07 | 3.79 | 6.48 | 11.6 |  |  | 2.15

Source: PubChem BioAssay (NCI)
